Laboratory results as given in patent US11077214B2, “Multimodal CT/optical agents” (University Health Network, priority 2013, dated 2021).

Experiment: In vitro photostability of ICG fluorescence at room temperature
Format: physicochemical
Settings: 3 days at room temperature
Experimental: The size of the liposome samples was measured using dynamic light scattering (DLS) (90Plus, Brookhaven, Holtsville, N.Y.). The iodine and ICG concentrations were determined using an absorbance assay at a wavelength of 245 nm for iodine and 785 nm for ICG (Cary 50 UV/VIS Spectrophotometer, Varian Inc., Palo Alto, Calif.). The lipid components of the liposome sample was analyzed using ultra performance liquid chromatography (UPLC, ACQUITY, Waters, Milford, Mass.) equipped with an evaporative light scattering detector (ELSD). The in vitro fluorescence measurements were performed using a 2D fluorescence imager (excitation/emission: 735/820 nm, CRI Maestro, Perkin Elmer, Waltham, Mass.).
Free ICG diluted in water, a 1:10 ethanol/water mixture and a 0.5:10 iohexol/water mixture yielded only 8±2%, 3±1%, 7±2% of its original fluorescence, respectively. […] The photostability of the encapsulated ICG was investigated by incubating the liposome samples and the free ICG solutions (at 7 physiologically relevant concentrations ranging from 0.5 to 2.5 μg/mL) at room temperature over a 21-day period.

In the case of `CC1(C)C(/C=C/C=C/C=C/C=C2\N(CCCCS(=O)(=O)O)c3ccc4ccccc4c3C2(C)C)=[N+](CCCCS(=O)(=O)[O-])c2ccc3ccccc3c21` [Free ICG, indocyanine green], the “retained original fluorescence signal” value (diluted in 0.5:10 iohexol/water mixture) is reported as 7±2%, the “retained original fluorescence signal” value (diluted in 1:10 ethanol/water mixture) is reported as 3±1% and the “retained original fluorescence signal” value (diluted in water) is reported as 8±2%.
